Test results reported in PubChem BioAssay (NCI).
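48-hour exposure; five concentrations; linearly interpolated endpoints. At the GI50, growth is halved. At the TGI there is no net growth.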

Key:
Experiment in all cases: inhibition of tumour cell growth, NCI panel, 48 h
SK-OV-3 ovarian = system: SK-OV-3 ovarian
ACHN renal = system: ACHN renal
HCT-15 colon = system: HCT-15 colon
UACC-62 melanoma = system: UACC-62 melanoma
KM12 colon = system: KM12 colon
SNB-19 CNS = system: SNB-19 CNS
MALME-3M melanoma = system: MALME-3M melanoma
IGROV1 ovarian = system: IGROV1 ovarian
OVCAR-4 ovarian = system: OVCAR-4 ovarian
EKVX NSCLC = system: EKVX NSCLC
UACC-257 melanoma = system: UACC-257 melanoma
SF-539 CNS = system: SF-539 CNS
NCI-H522 lung = system: NCI-H522 lung
SF-295 CNS = system: SF-295 CNS
SF-268 CNS = system: SF-268 CNS
SK-MEL-2 melanoma = system: SK-MEL-2 melanoma
CAKI-1 renal = system: CAKI-1 renal
HL-60(TB) leukemia = system: HL-60(TB) leukemia
U251 CNS = system: U251 CNS
M14 melanoma = system: M14 melanoma
MOLT-4 leukemia = system: MOLT-4 leukemia
HS 578T breast = system: HS 578T breast
SNB-75 CNS = system: SNB-75 CNS
SN12C renal = system: SN12C renal
SK-MEL-28 melanoma = system: SK-MEL-28 melanoma
OVCAR-5 ovarian = system: OVCAR-5 ovarian
SK-MEL-5 melanoma = system: SK-MEL-5 melanoma
OVCAR-8 ovarian = system: OVCAR-8 ovarian
HOP-62 NSCLC = system: HOP-62 NSCLC
COLO 205 colon = system: COLO 205 colon
HT29 colon = system: HT29 colon
TK-10 renal = system: TK-10 renal
NCI-H460 lung = system: NCI-H460 lung
RXF 393 renal = system: RXF 393 renal
A549 NSCLC = system: A549 NSCLC
MCF7 breast = system: MCF7 breast
NCI/ADR-RES ovarian = system: NCI/ADR-RES ovarian
BT-549 breast = system: BT-549 breast
K-562 leukemia = system: K-562 leukemia
HCT-116 colon = system: HCT-116 colon
T-47D breast = system: T-47D breast
HCC-2998 colon = system: HCC-2998 colon
LOX IMVI melanoma = system: LOX IMVI melanoma
DU-145 prostate = system: DU-145 prostate
SW-620 colon = system: SW-620 colon
NCI-H23 lung = system: NCI-H23 lung
A498 renal = system: A498 renal
PC-3 prostate = system: PC-3 prostate
OVCAR-3 ovarian = system: OVCAR-3 ovarian
MDA-MB-231 breast = system: MDA-MB-231 breast
HOP-92 NSCLC = system: HOP-92 NSCLC
MDA-MB-435 = system: MDA-MB-435
786-0 renal = system: 786-0 renal
UO-31 renal = system: UO-31 renal

Question: Which results are given for `CN(C)CCCC1(c2ccc(F)cc2)OCc2cc(-c3cc4ccccc4s3)ccc21` (stereo not drawn)?
Answer: GI50 (SK-OV-3 ovarian): 1660 nM; TGI (SK-OV-3 ovarian): 3040 nM; GI50 (ACHN renal): 1660 nM; TGI (ACHN renal): 3020 nM; GI50 (HCT-15 colon): 1690 nM; TGI (HCT-15 colon): 3130 nM; GI50 (UACC-62 melanoma): 1790 nM; TGI (UACC-62 melanoma): 3240 nM; GI50 (KM12 colon): 1740 nM; TGI (KM12 colon): 3450 nM; GI50 (SNB-19 CNS): 1720 nM; TGI (SNB-19 CNS): 3130 nM; GI50 (MALME-3M melanoma): 1540 nM; TGI (MALME-3M melanoma): 2980 nM; GI50 (IGROV1 ovarian): 1140 nM; TGI (IGROV1 ovarian): 2460 nM; GI50 (OVCAR-4 ovarian): 1940 nM; TGI (OVCAR-4 ovarian): 3520 nM; GI50 (EKVX NSCLC): 1660 nM; TGI (EKVX NSCLC): 3070 nM; GI50 (UACC-257 melanoma): 1800 nM; TGI (UACC-257 melanoma): 3270 nM; GI50 (SF-539 CNS): 1700 nM; TGI (SF-539 CNS): 3090 nM; GI50 (NCI-H522 lung): 1700 nM; TGI (NCI-H522 lung): 3280 nM; GI50 (SF-295 CNS): 1910 nM; TGI (SF-295 CNS): 3600 nM; GI50 (SF-268 CNS): 1650 nM; TGI (SF-268 CNS): 3290 nM; GI50 (SK-MEL-2 melanoma): 1800 nM; TGI (SK-MEL-2 melanoma): 3460 nM; GI50 (CAKI-1 renal): 1290 nM; TGI (CAKI-1 renal): 2590 nM; GI50 (HL-60(TB) leukemia): 1760 nM; TGI (HL-60(TB) leukemia): 3390 nM; GI50 (U251 CNS): 1630 nM; TGI (U251 CNS): 3020 nM; GI50 (M14 melanoma): 1590 nM; TGI (M14 melanoma): 3130 nM; GI50 (MOLT-4 leukemia): 1520 nM; TGI (MOLT-4 leukemia): 3080 nM; GI50 (HS 578T breast): 1800 nM; TGI (HS 578T breast): 3960 nM; GI50 (SNB-75 CNS): 1240 nM; TGI (SNB-75 CNS): 2580 nM; GI50 (SN12C renal): 1570 nM; TGI (SN12C renal): 2940 nM; GI50 (SK-MEL-28 melanoma): 1810 nM; TGI (SK-MEL-28 melanoma): 3220 nM; GI50 (OVCAR-5 ovarian): 1580 nM; TGI (OVCAR-5 ovarian): 2920 nM; GI50 (SK-MEL-5 melanoma): 1690 nM; TGI (SK-MEL-5 melanoma): 3050 nM; GI50 (OVCAR-8 ovarian): 1720 nM; TGI (OVCAR-8 ovarian): 3250 nM; GI50 (HOP-62 NSCLC): 1600 nM; TGI (HOP-62 NSCLC): 3000 nM; GI50 (COLO 205 colon): 1340 nM; TGI (COLO 205 colon): 2740 nM; GI50 (HT29 colon): 1670 nM; TGI (HT29 colon): 3110 nM; GI50 (TK-10 renal): 1700 nM; TGI (TK-10 renal): 3130 nM; GI50 (NCI-H460 lung): 1930 nM; TGI (NCI-H460 lung): 3670 nM; GI50 (RXF 393 renal): 1420 nM; TGI (RXF 393 renal): 2860 nM; GI50 (A549 NSCLC): 1730 nM; TGI (A549 NSCLC): 3190 nM; GI50 (MCF7 breast): 1750 nM; TGI (MCF7 breast): 3470 nM; GI50 (NCI/ADR-RES ovarian): 1740 nM; TGI (NCI/ADR-RES ovarian): 3250 nM; GI50 (BT-549 breast): 2030 nM; TGI (BT-549 breast): 3890 nM; GI50 (K-562 leukemia): 1680 nM; TGI (K-562 leukemia): 3300 nM; GI50 (HCT-116 colon): 1670 nM; TGI (HCT-116 colon): 3220 nM; GI50 (T-47D breast): 2040 nM; TGI (T-47D breast): 3750 nM; GI50 (HCC-2998 colon): 1670 nM; TGI (HCC-2998 colon): 3110 nM; GI50 (LOX IMVI melanoma): 1640 nM; TGI (LOX IMVI melanoma): 3130 nM; GI50 (DU-145 prostate): 1790 nM; TGI (DU-145 prostate): 3240 nM; GI50 (SW-620 colon): 1740 nM; TGI (SW-620 colon): 3400 nM; GI50 (NCI-H23 lung): 1760 nM; TGI (NCI-H23 lung): 3340 nM; GI50 (A498 renal): 1530 nM; TGI (A498 renal): 2920 nM; GI50 (PC-3 prostate): 1500 nM; TGI (PC-3 prostate): 2990 nM; GI50 (OVCAR-3 ovarian): 1670 nM; TGI (OVCAR-3 ovarian): 3190 nM; GI50 (MDA-MB-231 breast): 1520 nM; TGI (MDA-MB-231 breast): 2950 nM; GI50 (HOP-92 NSCLC): 1330 nM; TGI (HOP-92 NSCLC): 2950 nM; GI50 (MDA-MB-435): 1830 nM; TGI (MDA-MB-435): 3320 nM; GI50 (786-0 renal): 1760 nM; TGI (786-0 renal): 3370 nM; GI50 (UO-31 renal): 1240 nM; TGI (UO-31 renal): 2490 nM
